A short description of data set [1]: UGTs/CYPs dual-activity mouse liver microsomal stability. As to conditions: for UGTs/CYPs dual-activity mouse liver microsomal stability: 5 μM, NADPH + UDP-GlcUA; for half-life at 5 µM / microsomal CLint at 1 h, 5 µM / half-life at 1 h, 5 µM: CD-1, mouse liver microsomes; for half-life at 5 µM / half-life at 1 h, 5 µM: 0.693/k, read-out: in vitro half-life; for microsomal CLint at 1 h, 5 µM: read-out: microsomal intrinsic clearance (CLint,micr). The class given is in vitro ADME. The protocol:
Initially, the chemical stability of the compounds was studied in phosphate buffer at pH 7.4. […] The same stability was evident in mouse plasma at two different time points (1 and 2 h, Table 2). In addition, all the compounds were subjected to an in vitro microsomal stability assay. In this assay, the metabolism of the parent compound over time (up to 60 min) was measured by liquid chromatography–mass spectrometry (LC–MS) in the presence of CYP450 and UGTs (uridine 5′-diphospho-glucuronosyltransferases) microsomal systems. The measurement of hepatic metabolism also allowed the determination of different pharmacokinetic parameters such as in vitro intrinsic clearance (CLint,micr) and to predict in vivo intrinsic clearance (CLint). The predicted in vivo CLint values were calculated using a microsomal protein value of 45 mg per gram of liver tissue and 87 g of liver per kg of body weight. The microsomal stability assay was validated using testosterone (low stability in the presence of NADPH), 2-naphthol (low stability using NADPH and UDPGA cofactors), and 3-(α-acetonylbenzyl)-4-hydroxy coumarin (high stability in dual-activity assay) as positive controls. To detect nonspecific protein binding or heat instability, the compounds were incubated without cofactors (negative control). Moreover, since microsomal concentrations > 2 mg mL^–1 are not recommended due to a potential negative impact of increased nonspecific binding on the rate of metabolism,[25] in our assay we used a low concentration of liver microsomes (0.5 mg mL^–1).
For microsomal stability assay, 25 μL of 5 mg mL^–1 mouse (CD-1) microsomes (Thermo Fisher Scientific, Bremen, Germany) were preincubated for 5 min at 37 °C with alamethicin and 2.5 μL of each sample (5 μM). The reaction started by adding a 50 μL mixture of 10 mM NADPH and UDP-GlcUA as cofactors (1:1 v/v) and was carried out at 37 °C for 15, 30, and 60 min in a Thermomixer comfort. The reaction was stopped by the addition of 200 μL of ice-cold methanol containing IS, and then samples were centrifuged at 14,680 rpm at 25 °C for 7 min (Eppendorf microcentrifuge 5424, Hamburg, Germany). The supernatants were collected and injected in LC-MS.
The control at 0 min was obtained by the addition of the organic solvent immediately after incubation with microsomes. Testosterone, 2-naphthol, and 3-(α-acetonylbenzyl)-4-hydroxy coumarin were used as the positive controls, while the negative control was prepared by incubation for up to 60 min without cofactors. The extent of metabolism is expressed as a percentage of the parent compound turnover. All experiments were performed in triplicate.
Background: Liver microsomes are a subcellular fraction often used to study metabolism.

A further data set deals with T1, 5-LOX (Homo sapiens, UniProt P09917).
T1 sequence (P09917 1-674): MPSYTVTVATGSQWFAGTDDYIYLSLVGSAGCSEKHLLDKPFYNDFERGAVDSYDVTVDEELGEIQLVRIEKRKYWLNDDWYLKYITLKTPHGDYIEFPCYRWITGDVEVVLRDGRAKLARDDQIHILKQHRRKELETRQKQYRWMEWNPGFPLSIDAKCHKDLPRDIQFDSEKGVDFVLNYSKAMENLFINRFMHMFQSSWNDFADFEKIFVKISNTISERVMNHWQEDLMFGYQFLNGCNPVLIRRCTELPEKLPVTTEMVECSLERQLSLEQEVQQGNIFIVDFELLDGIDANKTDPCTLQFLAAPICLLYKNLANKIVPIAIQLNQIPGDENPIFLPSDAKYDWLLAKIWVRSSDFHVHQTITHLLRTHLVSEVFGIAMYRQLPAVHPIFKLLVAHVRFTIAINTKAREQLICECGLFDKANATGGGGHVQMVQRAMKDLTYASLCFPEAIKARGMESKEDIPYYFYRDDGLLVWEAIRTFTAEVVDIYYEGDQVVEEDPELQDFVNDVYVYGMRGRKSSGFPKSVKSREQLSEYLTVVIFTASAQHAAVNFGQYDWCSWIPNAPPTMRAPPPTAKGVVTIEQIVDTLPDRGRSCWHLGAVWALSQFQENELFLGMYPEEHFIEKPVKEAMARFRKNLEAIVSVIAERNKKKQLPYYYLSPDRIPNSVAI
In words: Cell-free 5-LOX activity assay. On the set-up: made in house; host or cells: Escherichia coli Bl21 (DE3). As to conditions: human isolated 5-LOX. Type of data set: biochemical. The protocol: Human recombinant 5-LOX was expressed in Escherichia coli Bl21 (DE3) cells that were transformed with the plasmid pT3-5LO (wt 5-LOX) and purified on an adenosine triphosphate (ATP)-agarose column by affinity chromatography.[40],[41] In a first step, E. coli was lysed in 50 mM triethanolamine/HCl pH 8.0 with ethylenediamine tetraacetic acid (EDTA) (5 mM), soybean trypsin inhibitor (60 μg/mL), phenylmethanesulfonyl fluoride (1 mM), dithiothreitol (1 mM), and lysozyme (1 mg/mL) and sonicated 3 times for 15 s. The homogenate was centrifuged at 40,000g for 20 min at 4 °C. The supernatant was transferred to an ATP-agarose column (Sigma-Aldrich, Deisenhofen, Germany), which was sequentially washed with phosphate-buffered saline (PBS) pH 7.4, 1 mM EDTA, 50 mM phosphate buffer pH 7.4, 0.5 M NaCl, 1 mM EDTA, and finally 50 mM phosphate buffer pH 7.4 plus 1 mM EDTA. The enzyme was eluted with 50 mM phosphate buffer pH 7.4, 1 mM EDTA, and 20 mM ATP.
5-LOX product formation was started by the addition of 20 μM arachidonic acid (Sigma-Aldrich) and CaCl2 (2 mM) and stopped by the addition of an equal volume of ice-cold methanol containing PGB1 (200 ng) as internal standard after 10 min at 37 °C.

Broadly, the half-life is how long it takes for the measured level to halve. As usually defined, the microsomal CLint is a measure of how fast metabolising enzymes remove a compound, apart from limits set by blood flow. For orientation: IC50 means the midpoint of a concentration-inhibition curve. A higher IC50 goes with weaker potency in that assay.

With `O=C(Nc1ccc2c(c1)CCN2Cc1ccc(F)cc1)NC12C[C@H]3C[C@@H](C1)C[C@@H](C2)C3` [Compound 6, 1-((3S,5S,7S)-Adamantan-1-yl)-3-(1-(4-fluorobenzyl)indolin-5-yl)urea], the “UGTs/CYPs dual-activity mouse liver microsomal stability” value in data set [1] (0.25 h, 0.5 mg mL–1 microsomes) is given as 21.3 ± 0.9%; in data set [1] (0.5 h) it was 10.9 ± 0.1%; in data set [1] (1.0 h) it was 10.6 ± 0.1%. In addition, the half-life at 5 µM in data set [1] is 20.4 min. For the same compound, the intrinsic clearance (microsomal CLint) at 1 h, 5 µM in data set [1] was determined as 67.8 µL/min/mg. In addition, half-maximal inhibition against 5-LOX (IC50) was put at 71 ± 16 nM.

As to `O=C(NCC12C[C@H]3C[C@@H](C1)C[C@@H](C2)C3)Nc1ccc2c(ccn2Cc2ccc(F)cc2)c1` [Compound 27, 1-(((3R,5R,7R)-Adamantan-1-yl)methyl)-3-(1-(4-fluorobenzyl)-1H-indol-5-yl)urea], the “UGTs/CYPs dual-activity mouse liver microsomal stability” value in data set [1] (0.25 h, 0.5 mg mL–1 microsomes) turned out to be 8.4 ± 0.3%; in data set [1] (0.5 h), 3.2 ± 1.0%; in data set [1] (1.0 h), 2.1 ± 0.7%. In data set [1], the half-life at 5 µM came to 11.9 min. Besides, in data set [1], the microsomal CLint at 1 h, 5 µM was determined as 117 µL/min/mg. Also, the IC50 against 5-LOX is > 1000 nM.

Turning to `CC(C)c1ccc(Cn2ccc3cc(NC(=O)NCC45C[C@H]6C[C@@H](C4)C[C@@H](C5)C6)ccc32)cc1` [Compound 28, 1-(((3R,5R,7R)-Adamantan-1-yl)methyl)-3-(1-(4-isopropylbenzyl)-1H-indol-5-yl)urea], the “UGTs/CYPs dual-activity mouse liver microsomal stability” value amounted to 91.5 ± 2.2% in data set [1] (0.25 h, 0.5 mg mL–1 microsomes); 69.8 ± 2.9% in data set [1] (0.5 h); 53.1 ± 2.8% in data set [1] (1.0 h). In addition, the half-life at 1 h, 5 µM in data set [1] worked out at 62.9 min. For the same compound, the microsomal CLint at 1 h, 5 µM in data set [1] was 22 µL/min/mg. The IC50 on 5-LOX was > 1000 nM.

As to `O=C(NCC12C[C@H]3C[C@@H](C1)C[C@@H](C2)C3)Nc1ccc2c(ccn2CCc2ccc(F)cc2)c1` [Compound 30, 1-(((3R,5R,7R)-Adamantan-1-yl)methyl)-3-(1-(4-fluorophenethyl)-1H-indol-5-yl)urea], the “UGTs/CYPs dual-activity mouse liver microsomal stability” value in data set [1] (0.25 h, 0.5 mg mL–1 microsomes) was 16.6 ± 1.4%; in data set [1] (0.5 h), 9.3 ± 0.6%; in data set [1] (1.0 h), 5.7 ± 0.2%. For the same compound, the half-life at 5 µM in data set [1] worked out at 16 min. Also, in data set [1], the microsomal CLint at 1 h, 5 µM came out at 86.6 µL/min/mg. Further, the IC50 against 5-LOX was > 1000 nM.

`O=C(NCC12C[C@H]3C[C@@H](C1)C[C@@H](C2)C3)Nc1ccc2c(ccn2C(=O)c2ccc(F)cc2)c1` [Compound 36, 1-(((3R,5R,7R)-Adamantan-1-yl)methyl)-3-(1-(4-fluorobenzoyl)-1H-indol-5-yl)urea]: the “UGTs/CYPs dual-activity mouse liver microsomal stability” value stood at 20.4 ± 1.8% in data set [1] (0.25 h, 0.5 mg mL–1 microsomes); 11.9 ± 0.6% in data set [1] (0.5 h); 2.4 ± 0.4% in data set [1] (1.0 h). Moreover, in data set [1], the half-life at 1 h, 5 µM came out at 11.8 min. For the same compound, in data set [1], the microsomal CLint at 1 h, 5 µM was found to be 118 µL/min/mg. For the same compound, the IC50 at 5-LOX is > 1000 nM.
